Experimental data as given in patent US3956287A, “7-[(2-Oxo-1-pyridinyl)acylamino]cephalosporin derivatives” (Richardson-Merrell Inc., priority 1973, dated 1976).
Converted amounts (≈) assume the structure as drawn. Counter-ions that a name gives are not always drawn. Like-named read-outs stand apart in the source and are kept apart here.

Experiments:
[1] = system: Salmonella schottmuelleri; assay: in vitro antibacterial activity, minimal inhibiting concentration, Salmonella schottmuelleri; format: cell-based; settings: read-out: Minimal inhibiting concentration, Salmonella schottmuelleri
Experimental: (§1) Specific nutrient agar plates are completely innoculated with the various test organisms. Filter paper discs are placed on the surface of the agar and wetted with 0.1 ml of a solution containing 10, 100 and 1,000 micrograms of the test compound. Zones of inhibition of microbial growth are used to indicate the antibacterial activity of the test compound against the various test organisms employed.
(§2) The following table summarizes the in vitro activity in terms of a concentration required to inhibit the growth of various typical bacteria for the following representative compounds: 6-[2-(2-oxo-1-pyridinyl)acetylamino]penicillanic acid, sodium salt (1), 7-[2-(2-oxo-1-pyridinyl)acetylamino]desacetoxycephalosporanic acid, sodium salt (2), 6-[2-(6-methyl-2-oxo-1-pyridinyl)acetylamino]pencillanic acid (3), 6-[2-(2-oxo-1-pyridinyl)-2-methylacetylamino]penicillanic acid (4), 6-[2-(5-chloro-2-oxo-1-pyridinyl)acetylamino]penicillanic acid (5), 6-[2-(5-nitro-2-oxo-1-pyridinyl)acetylamino]penicillanic acid (6), 6-[ 2-(5-amino-2-oxo-1-pyridinyl)acetylamino]penicillanic acid (7), 6-[2-(3-methoxy-2-oxo-1-pyridinyl)acetylamino]penicillanic acid (8), and 7-[2-(2-oxo-1-pyridinyl)acetylamino]cephalosporanic acid (9).

Streptococcus pyogenes = assay: in vitro antibacterial activity, minimal inhibiting concentration, Streptococcus pyogenes; format: cell-based; settings: read-out: Minimal inhibiting concentration, Streptococcus pyogenes
Experimental: as §1, §2

[2] = system: (Penicillinase Producing) Staphylococcus aureus; assay: in vitro antibacterial activity, minimal inhibiting concentration, penicillinase producing Staphylococcus aureus; format: cell-based; settings: read-out: Minimal inhibiting concentration, (Penicillinase Producing) Staphylococcus aureus
Experimental: as §1, §2

Acid Resistance = format: physicochemical
Staphylococcus aureus = assay: in vitro antibacterial activity, minimal inhibiting concentration, Staphylococcus aureus; format: cell-based; settings: read-out: Minimal inhibiting concentration, Staphylococcus aureus
Experimental: as §1, §2

[3] = in vitro, filter paper discs on nutrient agar, 0.1 ml of solution containing 10, 100 and 1,000 micrograms
[4] = penicillinase producing strain, in vitro, filter paper discs on nutrient agar, 0.1 ml of solution containing 10, 100 and 1,000 micrograms

SMILES | MIC [1, 3] [µg/mL] | MIC (Streptococcus pyogenes; [3]) [µg/mL] | MIC [2, 4] [µg/mL] | Acid Resistance (Acid Resistance) | MIC (Staphylococcus aureus; [3]) [µg/mL] | MIC [1] [µg/mL] | MIC (Streptococcus pyogenes) [µg/mL] | MIC [2] [µg/mL] | MIC (Staphylococcus aureus) [µg/mL]
CC1(C)S[C@@H]2C(NC(=O)Cn3cc(Cl)ccc3=O)C(=O)N2[C@H]1C(=O)O (some centres unmarked) [Compound 5, 6-[2-(5-chloro-2-oxo-1-pyridinyl)acetylamino]penicillanic acid] | 1000 (≈ 2590 µM) | 1000 (≈ 2590 µM) | > 1000 | Yes | 10 (≈ 25.9 µM) | – | – | – | –
CC1(C)S[C@@H]2C(NC(=O)Cn3cc([N+](=O)[O-])ccc3=O)C(=O)N2[C@H]1C(=O)O (some centres unmarked) [Compound 6, 6-[2-(5-nitro-2-oxo-1-pyridinyl)acetylamino]penicillanic acid] | 1000 (≈ 2520 µM) | > 1000 | > 1000 | Yes | 10 (≈ 25.2 µM) | – | – | – | –
CC1(C)S[C@@H]2C(NC(=O)Cn3ccccc3=O)C(=O)N2[C@H]1C(=O)[O-].[Na+] (some centres unmarked) [Compound 1, 6-[2-(2-oxo-1-pyridinyl)acetylamino]penicillanic acid, sodium salt] | – | – | – | Yes | – | 1000 | 10 | 1000 | 10
COc1cccn(CC(=O)NC2C(=O)N3[C@@H]2SC(C)(C)[C@@H]3C(=O)O)c1=O (some centres unmarked) [Compound 8, 6-[2-(3-methoxy-2-oxo-1-pyridinyl)acetylamino]penicillanic acid] | 1000 (≈ 2620 µM) | – | 1000 (≈ 2620 µM) | Yes | 10 (≈ 26.2 µM) | – | – | – | –
CC(C(=O)NC1C(=O)N2[C@@H]1SC(C)(C)[C@@H]2C(=O)O)n1ccccc1=O (some centres unmarked) [Compound 4, 6-[2-(2-oxo-1-pyridinyl)-2-methylacetylamino]penicillanic acid] | 1000 (≈ 2740 µM) | 1000 (≈ 2740 µM) | 1000 (≈ 2740 µM) | Weak | 1000 (≈ 2740 µM) | – | – | – | –
CC(=O)OCC1=C(C(=O)O)N2C(=O)C(NC(=O)Cn3ccccc3=O)C2SC1 (centres unmarked) [Compound 9, 7-[2-(2-oxo-1-pyridinyl)acetylamino]cephalosporanic acid] | 100 (≈ 245 µM) | 10 (≈ 24.5 µM) | 1000 (≈ 2450 µM) | Yes | 10 (≈ 24.5 µM) | – | – | – | –
Cc1cccc(=O)n1CC(=O)NC1C(=O)N2C1SC(C)(C)C2C(=O)O (centres unmarked) [Compound 3, 6-[2-(6-methyl-2-oxo-1-pyridinyl)acetylamino]pencillanic acid] | 1000 (≈ 2740 µM) | 1000 (≈ 2740 µM) | 1000 (≈ 2740 µM) | Yes | 10 (≈ 27.4 µM) | – | – | – | –
CC1=C(C(=O)O)N2C(=O)C(NC(=O)Cn3ccccc3=O)C2SC1 (centres unmarked) [Compound 2, 7-[2-(2-oxo-1-pyridinyl)acetylamino]desacetoxycephalosporanic acid, sodium salt] | > 1000 | 1000 | > 1000 | Yes | 1000 | – | – | – | –
CC1(C)S[C@@H]2C(NC(=O)Cn3cc(N)ccc3=O)C(=O)N2[C@H]1C(=O)O (some centres unmarked) [Compound 7, 6-[2-(5-amino-2-oxo-1-pyridinyl)acetylamino]penicillanic acid] | 1000 (≈ 2730 µM) | > 1000 | > 1000 | Yes | 10 (≈ 27.3 µM) | – | – | – | –
